Key:
[1] = system: other four DA receptor subtypes; assay: Binding to the other DA receptor subtypes; settings: result in words
[2] = system: apomorphine (APO)-induced climbing behavior; settings: for mice exhibiting inhibition of climbing: at higher dosages of each agent
D2R [3] = biological target: T1, D2R (Homo sapiens, UniProt P14416); assay: cell-based; assay type: cell-based; settings: for recruitment of β-arrestin-2 to the D2R: result in words; for Emax: normalized to vehicle (0%) and quinpirole (100%), read-out: β-Arrestin Emax
T1 sequence (P14416 whole entry): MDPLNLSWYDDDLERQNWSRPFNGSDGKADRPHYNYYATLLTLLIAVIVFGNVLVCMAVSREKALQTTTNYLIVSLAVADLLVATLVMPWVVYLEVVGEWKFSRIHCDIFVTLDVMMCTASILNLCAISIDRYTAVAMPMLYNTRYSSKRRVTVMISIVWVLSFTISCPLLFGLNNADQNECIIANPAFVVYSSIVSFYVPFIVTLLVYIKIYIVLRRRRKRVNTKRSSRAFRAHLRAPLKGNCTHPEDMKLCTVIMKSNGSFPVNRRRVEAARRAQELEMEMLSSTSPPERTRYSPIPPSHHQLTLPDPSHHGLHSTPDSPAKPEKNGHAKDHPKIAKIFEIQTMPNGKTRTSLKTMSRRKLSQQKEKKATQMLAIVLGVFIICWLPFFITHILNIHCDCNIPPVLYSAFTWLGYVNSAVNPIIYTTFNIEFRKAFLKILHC

righting reflex = assay: Righting test (sedation); assay type: in vivo; settings: rats, following CLP and bar tests
catalepsy = assay: Catalepsy bar test
[4] = Pharmacokinetics, plasma and brain levels by HPLC-PDA; settings: for half-life: t1/2, elimination
D2R [5] = biological target: T1, D2R; assay type: binding

With `Br.Br.Br.c1cnc(N2CCN(CCCc3nc4ccccc4s3)CC2)nc1` [Compound 28, 2-(3-(4-(Pyrimidin-2-yl)piperazin-1-yl)propyl)benzo[d]thiazole trihydrobromide] the “binding affinity to the other four DA receptor subtypes” value [1] was “little or no binding affinity”.

For `Fc1ccc(CCCCN2CCN(c3ccccn3)CC2)cc1` [SYA16263], the “mice exhibiting inhibition of climbing” value [2] was ~100%, the “recruitment of β-arrestin-2 to the D2R” value (D2R [3]) was “promotes D2-mediated β-arrestin-2 translocation” and the “righting after catalepsy testing” value (righting reflex) was “all rats were observed to right themselves”. The “mean time on bar” value (catalepsy; rats, up to 239 μmole/kg (75 mg/kg), 19×ED50apom, no catalepsy) was < 20 s, the AUC0-t ([4]; brain, rats, ip 50 mg/kg) was 86 μg · h/(mL or g) and the tmax ([4]; brain, rats, ip 50 mg/kg) was 10 min. For the same compound, the AUC0-t ([4]; plasma, rats, ip 50 mg/kg) was 5.4 μg · h/(mL or g), the Cplasma ([4]; plasma, rats, ip 50 mg/kg, used for BB) was 5.23 and the Cmax ([4]; rat, in vivo, ip, 50 mg/kg) was 63500 ng/g. For the same compound, the tmax ([4]; rat, in vivo, ip, 50 mg/kg) was 10.2 min, the Kp at 10 min ([4]; rat, in vivo, ip, 50 mg/kg, BB=Cbrain/Cplasma, rats, ip 50 mg/kg, at ~equilibrium point) was 12.1 and the half-life ([4]; rat, in vivo, ip, 50 mg/kg, brain, rats, ip 50 mg/kg) was 174 to 186 min. The half-life ([4]; rat, in vivo, ip, 50 mg/kg, plasma, rats, ip 50 mg/kg) was 44.4 to 58.8 min, the “Log BB” value ([4]; rats, ip 50 mg/kg) was 1.08 and the “brain concentration at 24-hour point” value ([4]; rats, ip 50.0 mg/kg, 24 h) was “near or below the detection limit”. The “plasma concentration at 24-hour point” value ([4]; rats, ip 50.0 mg/kg, 24 h) was “below the detection limit”.

With `Fc1ccc(OCCCN2CCN(c3ccccn3)CC2)cc1` [SYA16264] the Emax (D2R [3]) was 75.7%, the “righting after catalepsy testing” value (righting reflex) was “All rats righted themselves” and the “mean time on bar” value (catalepsy; male, Sprague-Dawley, rat, in vivo, 60 min) was < 20 s.

For `Fc1ccc(CCCCN2CCN(c3ccc(Cl)cc3)CC2)cc1` [SYA16267], the Ki (D2R [5]) was 284 ± 21 nM, the Emax (D2R [3]) was 5.1% and the “recruitment of β-arrestin-2 to the D2R” value (D2R [3]) was “significant loss of the ability”. The EC50 (D2R [3]; β-arrestin-2 recruitment to D2R) was 248 nM.

With `Fc1ccc(CCCCN2CCN(c3ncccn3)CC2)cc1` [SYA16268] the Emax (D2R [3]) was 71.9%.

With `O=C(CCCN1CCC(O)(c2ccc(Cl)cc2)CC1)c1ccc(F)cc1` [haloperidol] the “mice exhibiting inhibition of climbing” value [2] was ~100%, the “antipsychotic activity in animal models of schizophrenia (FIG. 10A)” value ([2]; result in words) was “dose-dependent antipsychotic activity” and the “catalepsy at 6×ED50 (FIG. 10B)” value (catalepsy; 6×ED50 values, result in words) was “significant catalepsy”.

From patent US11129831B2, “Identification of agents displaying functional activation of dopamine D2 and D4 receptors” (Florida A&M University, priority 2017, dated 2021)
